Source: patent US20130053374A1, “OPHTHALMIC COMPOSITION” (priority 2010, published 2013)
In brackets after ≈: the same amount, converted by molar mass. Like-named read-outs stand apart in the source and are kept apart here.

Key:
physchem = type: physicochemical; details: pH 7, aqueous with cosolvent or surfactant or cyclodextrin, thermodynamic from solid
Experimental: After allowing the suspensions to equilibrate at room temperature for additional 30 minutes, the suspension solutions were then sonicated for 10 min and finally filtered through 0.45 μm syringe filters.

[1] = Solubility of CAI with Bis-MPA hyperbranched polyester or PEG combination at pH 7.4 (Experimental Example 9); type: physicochemical; details: pH 7.4, 0.5% Timolol, 5% 3rd BMPA-HP
Experimental: Secondly, the effective volume of 5% (w/v) BMPA-HP solution was diluted appropriately to make up the exact concentrations described in Table 18. […] After stirring, the solution was sonicated for 5 minutes. […] The filtrates were analyzed for CAI using UPLC with the same condition as EXPERIMENTAL EXAMPLE 1.

[2] = cited from earlier work; for pKa (amine group): protonated secondary amine (Dorzolamide), amine (Brinzolamide); for pKa (sulfonamide group): sulfonamide (Dorzolamide), primary sulfonamide (Brinzolamide)
[3] = pH 7.4, 0.5% (w/v) Timolol, 5% (w/v) HP (Boltorn W3000)
Experimental: The emulsion was prepared by slowing dispersing water to the weighed amount of waxed Boltorn® W3000 to make 5% (w/v) emulsion with continuous stirring and heating at 60-70° C. for at least 30 minutes, followed by continuous vigorous stirring for an additional 15 hours, to obtain a homogeneous emulsion mixture in a flask.
10 mM phosphate buffer was added to the appropriately weighed mass of solid active ingredients and stirred thoroughly for 15 minutes. Secondly, the effective volume of 5% (w/v) HP emulsion solution was diluted appropriately to make up the exact concentrations described in Table 13. The sample test emulsion solutions were then stirred for 10 minutes at room temperature (with heating up to 60° C. for 5 minutes). After stirring, the emulsion solution was sonicated for 5 minutes. After allowing the complete emulsion of all the active and non-active ingredients, the pH was adjusted to 7.4 by using 1 M NaOH, and additional buffer was added to make up the exact compositions in Table 13. With the adjustment of the pH, the emulsion solutions were further equilibrated by stirring for an additional 15 hours or more at room temperature. The pH of all the sample emulsion solutions was measured again to confirm the final desired pH of 7.4.

[4] = pH-solubility of Dorzolamide with hyperbranched polymer and PEG (Experimental Example 1); type: physicochemical; details: 0.1% (w/v) phosphate buffer, FIG. 1
Experimental: Similar suspensions were also prepared in aqueous solution containing different concentrations of different HP and PEG with a molecular weight of 8000. A combination of Polysorbate 80 and PEG 8000 was also attempted. The pH was measured accurately with micro-pH electrode (Thermo Scientific). The desired pH was adjusted using either 1 M NaOH or 1 M HCl. […] After allowing the suspensions to equilibrate at room temperature for an additional 30 minutes, the suspension solutions were then sonicated for 10 minutes and finally filtered through 0.45 μm syringe filters.

[5] = Aqueous solubility of Dorzolamide in the presence of Timolol with HP, PEG, Polysorbate 80 (Experimental Example 3); type: physicochemical
Experimental: The final pH was adjusted to 5.65 with 1 M NaOH after addition of HP (sample 1). The combination of different molecular weight PEG and Polysorbate 80 at pH 5.65 as per Table 3 were also attempted. […] After allowing the suspensions to equilibrate at room temperature for an additional 30 minutes, the suspension solutions were then sonicated for 10 minutes and finally filtered through 0.45 μm syringe filters.

intact rabbit corneas [6] = details: for enhancement of corneal permeation rate: male, New Zealand, rabbit, 180 min, pH 5.65
Experimental: The samples were filtered by 0.45 μm filter syringe. The initial concentration of both the samples was determined by UPLC analysis.
Three male rabbits (New Zealand) weighing 3-4 pounds. The age of the rabbits was 11-12 weeks. Immediately after sacrifice by an overdose of carbon dioxide gas, the eyes were enucleated, saline washed, and the corneas were separated for the use in permeation experiments. Each cornea was rinsed with freshly prepared receptor solution (Table 4) to remove excess stain. The six intact and fresh corneas were fixed between clamped donor and receptor compartments of an all glass side-by-side diffusion cell in such a way that its epithelial surface faces the donor compartment.
The corneal area available for permeation was 0.211 cm^2. The receptor compartment was filled with freshly prepared receptor solution at pH 7.2, as per the composition described in Table 4. An aliquot (5 mL) of sample #1 was placed on the two intact corneas, and the opening of the donor cells was sealed with a glass cover slip. After 10 minutes of applying sample #1, an aliquot (5 mL) of sample #2 was applied on the next two intact corneas. Again, after 10 minutes, sample #3 aliquot (5 mL) was applied on the remaining two intact corneas. The receptor fluid (5 mL in each receptor cell) was kept at constant temperature of 34° C. using constant stirring through water jacket in all the six cases. At predetermined time intervals of 10, 20, 40, 60, 80, 100, 120, 140, 160, and 180 minutes, 200 μL samples were withdrawn from the receptor solution. Thereafter, the same amount of the phosphate buffer solution was added to the receptor cell. The drug concentrations were assayed by UPLC.
At the end of the experiment, each cornea (free from adhering sclera) was weighed after soaking in de-ionized water. The wet cornea was dried overnight in oven, and reweighed. From the difference of weights, corneal hydration was calculated. […] The parameters that were calculated are as follows:

intact rabbit corneas [7] = tested on: intact rabbit corneas
Excerpt: These suspension solutions were used directly as sample donor solutions for the cornea permeation study. In order to determine the solubility, the suspensions were filtered through 0.45 μm syringe filters.
Three male rabbits (New Zealand) weighing 2 to 3 kg. Immediately after sacrifice by an overdose of inhaler isoflurane, the eyes were enucleated, and the corneas were separated for use in the permeation experiments.

intact rabbit corneas [8] = tested on: intact rabbit corneas; remark: listed apart in the source
Experimental: 10 mM phosphate buffer was added to the appropriately weighed mass of the solid active ingredients, and stirred thoroughly for 15 minutes. […] The three test solutions were then stirred for 10 minutes at room temperature (with heating up to 60° C. for 5 minutes). After stirring, the solution was sonicated for 5 minutes. After allowing the complete dilution of all the active and non-active ingredients, the pH was adjusted to either 7.4 or 5.65 by using 1 M NaOH or 1 M HCl, and additional buffer was added to make up the exact compositions in the Table 15. With the adjustment of pH, the appearance was noted as per Table 14, and the formulations were further equilibrated by stirring for an additional 15 hours or more at room temperature. The pH of the all sample solutions was measured again to confirm the final desired pH. These formulations were used directly as sample donor solutions for the cornea permeation study.

isolated rabbit cornea = details: pH 7.4
Excerpt: The permeability coefficient is inversely proportional to the initial concentration of the drug in the donor solution.

SMILES | solubility at 30 min (physchem) [mg/mL] | solubility [1] | pKa (amine group) [2] | pKa (sulfonamide group) [2] | solubility [3] | pH-solubility profile (aqueous solubility vs pH) [4] | solubility thermodynamic at 30 min ([5]; aqueous buffer, thermodynamic from solid, pH 7, 10 mM phosphate buffer, no additives) [mg/mL] | diffusion coefficient on addition of HP and Polysorbate 80 (intact rabbit corneas [6]) | enhancement of corneal permeation rate (intact rabbit corneas [6]) | diffusion coefficient on addition of HP (intact rabbit corneas [7]) | diffusion coefficient on addition of HP (intact rabbit corneas [8]) | cumulative amount permeated compared to the market product (isolated rabbit cornea) | solubility of Timolol with the addition of additives ([5]; pH 5.65 and pH 7, samples containing 0.5% w/v Timolol) | cumulative amount permeated relative to control formulation at similar pH with no additives (intact rabbit corneas [8]; male, New Zealand, rabbit, 180 min, pH 7.4) [times] | cumulative amount permeated relative to the market product (isolated rabbit cornea; male, New Zealand, rabbit, 180 min)
CCN[C@H]1CN(CCCOC)S(=O)(=O)c2sc(S(N)(=O)=O)cc21 [Brinzolamide] | ~11 (≈ 28.7 mM) | about 1 % (w/v) | 5.9 | 8.4 | about 2 % (w/v) |  |  |  |  |  |  |  |  |  | 
CCN[C@H]1C[C@H](C)S(=O)(=O)c2sc(S(N)(=O)=O)cc21 [Dorzolamide] |  |  | 6.35 | 8.5 |  | reaches a bottom at pH 7 | < 5 | did not change significantly | 25-30% | did not change significantly | did not change significantly | almost comparable |  |  | 
CC(C)(C)NC[C@H](O)COc1nsnc1N1CCOCC1 [Timolol] |  |  |  |  |  |  |  | did not change significantly | 25-30% | did not change significantly | did not change significantly |  | did not change | ~2 | more than 2 times
